Source: patent US6479487B1, “6, 9-disubstituted 2-[trans-(4-aminocyclohexyl)amino] purines” (Aventis Pharmaceuticals Inc., priority 1998, dated 2002)
pIC50: −log10 of the molar value. Where “and” joins values, the source holds several entries; their conditions need not be identical. Equal values may be shown once. Where a name gives a salt, the structure may show the parent alone. Read-outs that look alike come from different tables or passages of the source.

What was measured:
cdk2/cyclin E = molecular target: T1, cdk2/cyclin E (Homo sapiens, UniProt P24941); test: Cyclin-Dependent Kinase 2 Assay (cdk2/cyclin E, GST-Rb substrate); format: biochemical; conditions: recombinant cdk2/cyclin E, 10 μM ATP, 30 min at 30° C., several values in a cell = separate determinations, read-out: CDK-2 Inhibition IC50
T1 construct: made in house; host or cells: insect cells (baculovirus co-infection)
Description: Substrate: GST-Rb as described above for cdk4/cyclin D1
Assay conditions for cdk2/cyclin E were identical to those for cdk4/cyclin D1 including the substrate. The concentration of recombinant cdk2/cyclin E in the assay was 0.1 μg per 100 μl assay. Incubation was for 30 min at 30° C.

MDA-MB-231 = test: In vitro tumor cell proliferation, MDA-MB-231; format: cell-based, human; conditions: MDA-MB-231; sulforhodamine B or CyQUANT assay; many values given with an undefined *; trihydrochloride; read-out: In vitro Tumor Cell Proliferation (IC50, μM) Breast MDA-MB-231
Procedure, shortened: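 Cells plated overnight at 37 °C, then exposed to drug for 3 days, refed with fresh drug and incubated 4 more days. Read-out by sulforhodamine B staining after TCA fixation; alternatively, CyQUANT after 3-day drug exposure and freezing at −80 °C.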

PC-3 = test: In vitro tumor cell proliferation, PC-3; format: cell-based, human; conditions: many values given with an undefined *, read-out: In vitro Tumor Cell Proliferation (IC50, μM) Prostate PC-3
Procedure, shortened: (§1)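 Cells seeded overnight at 37° C, then exposed to drug diluted in medium; at 3 days medium and drug replenished for another 4 days. Growth read by sulforhodamine B staining after TCA fixation; alternatively by CyQUANT, with plates frozen at −80° C after 3 days of drug.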

A549 = test: In vitro tumor cell proliferation, A549; format: cell-based, human; conditions: many values given with an undefined *, read-out: In vitro Tumor Cell Proliferation (IC50, μM) Lung A549
Procedure, shortened: as §1

Colo-205 = test: In vitro tumor cell proliferation, Colo-205; format: cell-based; conditions: values given with an undefined *, read-out: In vitro Tumor Cell Proliferation (IC50, μM) Colon Colo-205
Procedure, shortened: as §1

cdk4/cyclin D1 = molecular target: T2, cdk4/cyclin D1 (Homo sapiens, UniProt P11802); test: Cyclin-dependent Kinase 4 Assay (cdk4/cyclin D1, GST-Rb substrate); format: biochemical; conditions: cdk4/cyclin D1 insect cell lysate, 10 μM ATP, 30 min at 37° C., several values = separate determinations, read-out: CDK4 Inhibition IC50
T2 construct: made in house; host or cells: Sf9 insect cells (Bac-to-Bac baculovirus, pFastBac)
T2 sequence (P11802 whole entry): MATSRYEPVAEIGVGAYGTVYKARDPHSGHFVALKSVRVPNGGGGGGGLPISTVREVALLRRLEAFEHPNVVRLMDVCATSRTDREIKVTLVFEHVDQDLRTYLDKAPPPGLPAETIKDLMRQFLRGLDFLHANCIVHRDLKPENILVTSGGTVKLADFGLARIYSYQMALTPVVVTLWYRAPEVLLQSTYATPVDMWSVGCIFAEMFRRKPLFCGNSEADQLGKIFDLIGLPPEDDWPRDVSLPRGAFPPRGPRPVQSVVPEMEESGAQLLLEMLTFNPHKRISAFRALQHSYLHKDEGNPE
T2 sequence (P24385 whole entry partner): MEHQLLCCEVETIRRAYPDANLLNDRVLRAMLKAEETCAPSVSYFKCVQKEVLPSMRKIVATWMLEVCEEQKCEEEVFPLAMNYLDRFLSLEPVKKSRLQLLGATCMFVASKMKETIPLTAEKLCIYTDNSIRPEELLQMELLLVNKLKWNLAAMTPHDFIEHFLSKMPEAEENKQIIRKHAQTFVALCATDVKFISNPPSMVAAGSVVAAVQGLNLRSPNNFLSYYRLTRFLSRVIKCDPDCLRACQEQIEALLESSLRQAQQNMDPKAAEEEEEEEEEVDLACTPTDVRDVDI
Procedure, shortened: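 Insect-cell lysate of coexpressed cdk4/cyclin D1 (0.1 μg) acts on GST-Rb (0.5 μg) bound to glutathione-Sepharose, in 50 mM HEPES pH 7.5, 10 mM MgCl2, 1 mM EGTA. Reaction runs 30 min at 37 °C, then is stopped by filtration and TNEN washes. Rb phosphorylation read by scintillation counting; IC50 derived.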

MDA-MB-435 = test: In vitro tumor cell proliferation, MDA-MB-435; format: cell-based; conditions: values given with an undefined *, read-out: In vitro Tumor Cell Proliferation (IC50, μM) Breast MDA-MB-435
Procedure, shortened: as §1

DMS-114 = test: In vitro tumor cell proliferation, DMS-114; format: cell-based, human; conditions: many values given with an undefined *, read-out: In vitro Tumor Cell Proliferation (IC50, μM) Lung DMS-114
Procedure, shortened: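 Human small cell lung carcinoma DMS-114 cells plated overnight, then drug-treated for 3 days, medium and drug renewed, and incubated 4 more days. Growth read by sulforhodamine B staining after TCA fixation; alternatively by CyQUANT after 3 days' drug exposure and freezing at −80 °C.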

HT-29 = test: In vitro tumor cell proliferation, HT-29; format: cell-based, human; conditions: many values given with an undefined *, read-out: In vitro Tumor Cell Proliferation (IC50, μM) Colon HT-29
Procedure, shortened: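 HT-29 cells seeded overnight at 37° C, then exposed to drug for 3 days, refed with fresh drug-containing medium for 4 more days. Proliferation read by sulforhodamine B staining after TCA fixation; alternatively by CyQUANT after freezing plates at −80° C following 3 days' drug exposure.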

DU145 = test: In vitro tumor cell proliferation, DU145; format: cell-based, human; conditions: many values given with an undefined *, read-out: In vitro Tumor Cell Proliferation (IC50, μM) Prostate DU145
Procedure, shortened: as §1

[1] = Homo sapiens, COLO 205, Colo-205
[2] = Homo sapiens, MDA-MB-435, MDA-MB-435

N[C@H]1CC[C@H](Nc2nc(NC3CCN(CC4CCCCC4)CC3)c3ncn(C4CCCC4)c3n2)CC1 [Example 147-s, 2-[Trans-(4-aminocyclohexyl)amino]-6-[4-(1-cyclohexylmethyl)piperidinylamino]-9-cyclopentylpurine trihydrochloride]
pIC50 (cdk2/cyclin E): 6.92 and 7.00
IC50 (MDA-MB-231): 0.33 µM
IC50 (PC-3; PC-3, trihydrochloride): 0.37 µM
IC50 (A549; A549, trihydrochloride): 0.2 µM
IC50 (A549; Homo sapiens, A549, A549): 0.22 µM
IC50 (Colo-205; Colo-205, trihydrochloride): 0.23 µM
IC50 (Colo-205; [1]): 0.28 µM
pIC50 (cdk4/cyclin D1): 5.89 and 6.21
IC50 (MDA-MB-435; [2]): 0.42 µM
IC50 (MDA-MB-435; MDA-MB-435, trihydrochloride): 0.43 µM
IC50 (DMS-114; DMS-114, trihydrochloride): 0.3 µM
IC50 (DMS-114; Homo sapiens, DMS-114, DMS-114): 0.57 µM
IC50 (HT-29; HT-29, trihydrochloride): 0.33 µM
IC50 (HT-29; Homo sapiens, HT-29, HT-29): 0.35 µM
IC50 (DU145; DU145, trihydrochloride): 0.27 µM
IC50 (DU145; Homo sapiens, DU-145, DU145): 0.29 µM

N[C@H]1CC[C@H](Nc2nc(NC3CCN(Cc4ccc(OC(F)(F)F)cc4)CC3)c3ncn(C4CCCC4)c3n2)CC1 [Example 147-z, 2-[Trans-(4-aminocyclohexyl)amino]-6-[4-[1-(4-trifluoromethoxybenzyl)]piperidinylamino]-9-cyclopentylpurine trihydrochloride]
pIC50 (cdk2/cyclin E; trihydrochloride): 6.14 and 6.00
IC50 (MDA-MB-231): 0.37 µM and 0.35 µM
IC50 (PC-3; PC-3, trihydrochloride): 0.33 µM and 0.44 µM
IC50 (A549; A549, trihydrochloride): 0.18 µM and 0.3 µM
IC50 (Colo-205; Colo-205, trihydrochloride): 0.38 µM and 0.46 µM
pIC50 (cdk4/cyclin D1; trihydrochloride): 5.10 and 5.24
IC50 (MDA-MB-435; MDA-MB-435, trihydrochloride): 0.5 µM and 0.57 µM
IC50 (DMS-114; DMS-114, trihydrochloride): 0.34 µM and 0.42 µM
IC50 (HT-29; HT-29, trihydrochloride): 0.43 µM and 0.44 µM
IC50 (DU145; DU145, trihydrochloride): 0.28 µM and 0.36 µM

N[C@H]1CC[C@H](Nc2nc(NC3CCN(Cc4ccc(C(F)(F)F)cc4C(F)(F)F)CC3)c3ncn(C4CCCC4)c3n2)CC1 [Example 147-aa, 2-[Trans-(4-aminocyclohexyl)amino]-6-[4-[1-(2,4-bis-trifluoromethylbenzyl)]piperidinylamino]-9-cyclopentylpurine trihydrochloride]
pIC50 (cdk2/cyclin E; trihydrochloride): 5.80 and 5.59
IC50 (MDA-MB-231): 2.5 µM and 3.1 µM
IC50 (PC-3; PC-3, trihydrochloride): 3.8 µM and 4.6 µM
IC50 (A549; A549, trihydrochloride): 4.1 µM and 3.6 µM
IC50 (Colo-205; Colo-205, trihydrochloride): 4 µM and 2.9 µM
pIC50 (cdk4/cyclin D1; trihydrochloride): 5.00 and 5.08
IC50 (MDA-MB-435; MDA-MB-435, trihydrochloride): 5.8 µM and 4.9 µM
IC50 (DMS-114; DMS-114, trihydrochloride): 2.7 µM and 2.9 µM
IC50 (HT-29; HT-29, trihydrochloride): 2.8 µM and 2.3 µM
IC50 (DU145; DU145, trihydrochloride): 4.4 µM and 4.3 µM

N[C@H]1CC[C@H](Nc2nc(NC3CCN(Cc4ccccc4F)CC3)c3ncn(C4CCCC4)c3n2)CC1 [Example 147-k, 2-[Trans-(4-aminocyclohexyl)amino]-6-[4-[1-(2-fluorobenzyl)]piperidinylamino]-9-cyclopentylpurine trihydrochloride]
pIC50 (cdk2/cyclin E): 6.70 and 6.77
IC50 (MDA-MB-231): 0.32 µM
IC50 (PC-3; Homo sapiens, PC-3, PC-3): 0.35 µM
IC50 (PC-3; PC-3, trihydrochloride): 0.34 µM
IC50 (A549; A549, trihydrochloride): 0.16 µM
IC50 (A549; Homo sapiens, A549, A549): 0.29 µM
IC50 (Colo-205; Colo-205, trihydrochloride): 0.15 µM
IC50 (Colo-205; [1]): 0.26 µM
pIC50 (cdk4/cyclin D1): 5.54
IC50 (MDA-MB-435; [2]): 0.39 µM
IC50 (DMS-114; DMS-114, trihydrochloride): 0.29 µM
IC50 (DMS-114; Homo sapiens, DMS-114, DMS-114): 0.45 µM
IC50 (HT-29; HT-29, trihydrochloride): 0.26 µM
IC50 (HT-29; Homo sapiens, HT-29, HT-29): 0.4 µM
IC50 (DU145; DU145, trihydrochloride): 0.15 µM
IC50 (DU145; Homo sapiens, DU-145, DU145): 0.3 µM
